Experimental findings from ChEMBL document CHEMBL3774310, “Discovery of antitumor anthra[2,3-b]furan-3-carboxamides: Optimization of synthesis and evaluation of antitumor properties” (Eur J Med Chem, 2016) are described below.

Experiment [1] concerns K562. As to the kind of experiment: cells. The following applies: Homo sapiens, K562, 72 h.
Description: Antiproliferative activity against human K562 cells after 72 hrs by MTT assay
Another experiment deals with L1210. The experiment is described as follows: cells. The settings on record: Mus musculus, L1210, 48 h.
The nature of experiment [2]: Antiproliferative activity against human K562/4 cells after 72 hrs by MTT assay. The following applies: K562/4, 72 h. (In general: Tetrazolium assays rely on reduction of a dye to a coloured formazan, in cell work by metabolically active cells.)
The next experiment in a line: cells. The settings on record: Homo sapiens, HCT-116, 72 h.
Another experiment deals with HeLa. As to the kind of experiment: Antiproliferative activity against human HeLa cells after 72 hrs by MTT assay. Type of experiment: functional, cell-based.
Another experiment relates to K562/4. The experiment is described as follows: Binding affinity to P-gp in human K562/4 cells assessed as drug accumulation at 1 uM incubated for 1 to 24 hrs by flow cytometry. The experiment is classed as cell-based. (In general: Flow cytometry measures light scatter and fluorescence of single cells or particles in a stream.)
The test system of the next experiment is Calf thymus DNA. The experiment is described as follows: Binding affinity to calf thymus DNA at 5 uM by fluorescence assay. The following applies: Bos taurus. Type of experiment: nucleic-acid assay.
Experiment [3] deals with K562. As to the kind of experiment: Binding affinity to P-gp in human K562 cells assessed as drug accumulation at 1 uM incubated for 1 to 24 hrs by flow cytometry. Type of experiment: cell-based.
Experiment [4] has as its target T1, DNA topoisomerase 1 (Homo sapiens) (UniProt P11387).
T1 sequence (whole entry): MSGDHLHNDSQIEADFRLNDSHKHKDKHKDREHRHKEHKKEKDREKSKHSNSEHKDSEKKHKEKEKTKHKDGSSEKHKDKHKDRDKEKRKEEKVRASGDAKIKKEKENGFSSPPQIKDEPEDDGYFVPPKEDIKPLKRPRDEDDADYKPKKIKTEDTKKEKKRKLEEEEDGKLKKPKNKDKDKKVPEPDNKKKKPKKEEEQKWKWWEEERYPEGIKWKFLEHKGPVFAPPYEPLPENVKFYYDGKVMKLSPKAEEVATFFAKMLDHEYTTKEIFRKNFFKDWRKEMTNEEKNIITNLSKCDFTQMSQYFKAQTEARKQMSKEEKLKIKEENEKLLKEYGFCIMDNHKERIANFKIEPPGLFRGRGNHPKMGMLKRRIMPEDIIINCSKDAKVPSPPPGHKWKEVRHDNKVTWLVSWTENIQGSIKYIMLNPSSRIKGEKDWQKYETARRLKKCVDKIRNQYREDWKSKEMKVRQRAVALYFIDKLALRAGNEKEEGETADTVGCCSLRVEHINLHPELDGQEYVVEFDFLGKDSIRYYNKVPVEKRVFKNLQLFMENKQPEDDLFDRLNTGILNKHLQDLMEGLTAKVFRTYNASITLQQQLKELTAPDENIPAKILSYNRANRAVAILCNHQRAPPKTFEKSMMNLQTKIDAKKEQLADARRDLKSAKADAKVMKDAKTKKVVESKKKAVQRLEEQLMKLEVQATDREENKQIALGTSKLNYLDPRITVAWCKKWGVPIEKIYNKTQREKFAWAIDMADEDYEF
As to the kind of experiment: Poisoning activity at topoisomerase 1 (unknown origin) using 3'-[32P]dGTP labelled 117bp oligonucleotide assessed as induction of DNA cleavage at 1 uM incubated for 20 mins by SDS-PAGE analysis.

For experiment [5], the target named is T1, DNA topoisomerase 1 (Homo sapiens). As to the kind of experiment: Poisoning activity at topoisomerase 1 (unknown origin) using 3'-[32P]dGTP labelled 117bp oligonucleotide assessed as induction of DNA cleavage incubated for 20 mins by SDS-PAGE analysis.

Each structure is given as a SMILES string. Calls of active or inactive are those of the source. The rule behind the calls is not given here.

Description for L1210: Antiproliferative activity against mouse L1210 cells after 48 hrs by MTT assay

As to `Cc1oc2c(O)c3c(c(O)c2c1C(=O)N1CCNC(C)C1)C(=O)c1ccccc1C3=O` (centres undefined), the IC50 (usually the concentration at which inhibition is half-maximal) with K562 [1] came out at 0.9 µM; in the experiment with L1210, 3.7 µM; in experiment [2], 3 µM; in the experiment “cells”, 1.3 µM; in the experiment with HeLa, 0.9 µM.
Regarding `COc1cccc2c1C(=O)c1c(O)c3c(c(O)c1C2=O)C[C@@](O)(C(=O)CO)C[C@@H]3O[C@H]1C[C@H](N)[C@H](O)[C@H](C)O1`, the result in the experiment on K562/4 and with Calf thymus DNA was Active. Also, the result in the experiment on K562 [3] was inactive.
In the case of `Cc1oc2c(O)c3c(c(O)c2c1C(=O)N1CCCC(N)C1)C(=O)c1ccccc1C3=O` (centres undefined), the concentration for half-maximal inhibition (IC50) in the experiment on K562 [1] is 0.85 µM; in the experiment with L1210, 5.6 µM; in experiment [2], 0.7 µM; in the experiment “cells”, 1.5 µM; with HeLa it was 1.4 µM.
In the case of `COc1cc2c3c(n(CCCNCCO)c(=O)c2cc1OC)-c1cc2c(cc1C3=O)OCO2`, in experiment [4], the result was Active.
Turning to `Cc1oc2c(O)c3c(c(O)c2c1C(=O)NC1CCNCC1)C(=O)c1ccccc1C3=O`, the IC50 was 2.7 µM with K562 [1]; 5.1 µM in the experiment with L1210; 4 µM in [2]; 1.2 µM in “cells”; 11 µM with HeLa.
The like results for `Cc1oc2c(O)c3c(c(O)c2c1C(=O)NC1CN2CCC1CC2)C(=O)c1ccccc1C3=O` (centres undefined) were, in that order, 0.6 µM, 2.4 µM, 0.65 µM, 0.9 µM and 12 µM.
The like results for `Cc1oc2c(O)c3c(c(O)c2c1C(=O)N[C@@H]1CCNC1)C(=O)c1ccccc1C3=O` were, in that order, 0.7 µM, 5.4 µM, 0.75 µM, 0.3 µM and 9.5 µM.
In the same order, the values of `Cc1oc2c(O)c3c(c(O)c2c1C(=O)N1CCNCC1)C(=O)c1ccccc1C3=O` are 1.3 µM, 4.1 µM, 2.8 µM, 2.3 µM and 3.1 µM.
Turning to `Cc1oc2c(O)c3c(c(O)c2c1C(=O)N1CCC(N)CC1)C(=O)c1ccccc1C3=O`, the IC50 in the experiment on K562 [1] turned out to be 2.1 µM; with L1210, 13 µM; in [2], 0.4 µM; in the experiment “cells”, 2 µM; in the experiment on HeLa, 9.7 µM.
In the same order, the values of `Cc1oc2c(O)c3c(c(O)c2c1C(=O)N1CCNCC1C)C(=O)c1ccccc1C3=O` (centres undefined) are 1.1 µM, 3.7 µM, 4.8 µM, 1.6 µM and 0.7 µM.
In the same order, the values of `Cc1oc2c(O)c3c(c(O)c2c1C(=O)N[C@H]1CCNC1)C(=O)c1ccccc1C3=O` are 0.75 µM, 6.5 µM, 0.8 µM, 0.25 µM and 64 µM.
With `CC[C@@]1(O)C(=O)OCc2c1cc1n(c2=O)Cc2cc3ccccc3nc2-1`, the outcome in [4] was Active.
With `Cc1oc2c(O)c3c(c(O)c2c1C(=O)NC1CCCNC1)C(=O)c1ccccc1C3=O` (centres undefined), the IC50 was 0.6 µM in the experiment on K562 [1]; 3 µM in the experiment with L1210; 0.35 µM in experiment [2]; 1.6 µM in “cells”; 3.4 µM in the experiment with HeLa.
In the same order, the values of `Cc1oc2c(O)c3c(c(O)c2c1C(=O)N1CCN(C)CC1)C(=O)c1ccccc1C3=O` are 1.6 µM, 82 µM, 5.9 µM, 11.5 µM and 104 µM.
Take `O=C1c2ccccc2C(=O)c2c1c(O)c1[nH]cc(CN[C@@H]3CCNC3)c1c2O`: the outcome in [5] was Active. Also, the IC50 in the experiment on L1210 turned out to be 0.07 µM; in [2] it was 0.4 µM; in the experiment “cells”, 1.6 µM.
